{
  "source": "patent US20090317474A1",
  "about": "“USE OF POLYETHYLENE GLYCOL IN INFLAMMATION RELATED TOPICAL DISORDERS OR DISEASES AND WOUND HEALING” (Flen Pharma N.V., priority 2006, published 2009)",
  "key": {"proMMP-9": {"system": "proMMP-9", "test": "proMMP-9 secretion by J774 macrophages challenged with heat inactivated E. coli", "format": "cell-based, murine", "procedure": "Macrophage cells were pre-conditioned for 30 min. with varying concentrations of PEG400 (0.31-10% w/w) and then challenged with heat inactivated E. coli bacteria. Next, cells were further incubated overnight. The supernatant of cells was analyzed for proMMP-9 according to the manufacturer's indications (R&D systems, Abingdon, UK)."}, "VEGF [1]": {"system": "VEGF", "test": "VEGF expression by fibroblasts (ELISA)", "format": "cell-based, murine", "details": "overnight"}, "IL-6 [2]": {"system": "IL-6", "test": "IL-6 expression by J774 macrophages after heat inactivated E. coli stimulation", "format": "cell-based, murine", "details": "J774 cells, with vs without PEG", "procedure": "The cells were cultured with or without PEG (PEG600 diacid) The expression of IL-6 is lowered by about 30% when PEG is added."}, "HaCat keratinocytes": {"system": "HaCat keratinocytes", "test": "Toxicity of PEG on cultivated cells (tetrazolium cell survival)", "format": "cell-based", "procedure": "(§1) Cells were grown in DMEM (3T3 fibroblasts and HaCat keratinocytes) or in RPMI1640 (J774 macrophages). Both media were supplemented with heat inactivated 10% Fetal Calf Serum (Sigma), 2 mM L-Glutamine (Sigma) and antibiotics (Sigma). Cells were seeded subconfluent in 96 well plates and contacted for about 16 hours with PEG test compounds which were dissolved in growth media (expressed as w/w end concentrations).\n(§2) Cell survival was assayed by the conversion of soluble tetrazolium salt into an insoluble and pink colored formazan (absorption measured at 570 nm).\n(§3) Cells were incubated overnight with varying concentrations of PEG 400 (0.31-10% w/w). From 5% onwards, PEG has a cytotoxic effect on in vitro cultivated cells, especially on keratinocytes (FIG. 1A) and on macrophages (FIG. 1B), and to a lesser extent on fibroblasts (FIG. 1C)."}, "3T3 fibroblasts": {"system": "3T3 fibroblasts", "test": "Toxicity of PEG on cultivated cells (tetrazolium cell survival)", "format": "cell-based, murine", "procedure": "as §1, §2, §3"}, "J774 macrophages": {"system": "J774 macrophages", "test": "Toxicity of PEG on cultivated cells (tetrazolium cell survival)", "format": "cell-based, murine", "procedure": "as §1, §2, §3"}, "IL-6 [3]": {"system": "IL-6", "test": "IL-6 expression in 3T3 cells incubated with hydrogel", "format": "cell-based, murine", "details": "Na+-Ca++ alginate gel with 2.5% PEG400 vs gel without PEG400, 16 h", "procedure": "(§4) J774 macrophages were pre-conditioned for 30 min. with the gels and were then challenged with 100 ng/ml LPS. 3T3 cells were not challenged with bacteria. Next, the murine macrophage J774 and murine fibroblast 3T3 cells were incubated with the gels for 16 h at 37° C., 5% CO2. Hereafter, the medium was collected, centrifuged at 14,000 rpm during 20 min to remove particulate material and assayed for the indicated secreted proteins. Results are the mean of two independent experiments and are expressed as percentages of the control experiment.\n(§5) A hydrogel was made by dissolving 2 g Kelset (Na^+—Ca^++ alginate) and 5 g PEG400 in a final volume of 100 ml growth medium [DMEM high glucose, 10% FCS, 4 mM L-Glutamine, antibiotics]. This mixture was further diluted with an additional 100 ml of growth medium to lower the viscosity of the solutions. The final concentration of PEG400 was 2.5%.\n(§6) A similar solution without PEG400 was used as control."}, "VEGF [4]": {"system": "VEGF", "test": "VEGF expression in 3T3 cells incubated with hydrogel", "format": "cell-based, murine", "details": "Na+-Ca++ alginate gel with 2.5% PEG400 vs gel without PEG400, 16 h", "procedure": "as §4, §5, §6"}, "IL-6 [5]": {"system": "IL-6", "test": "IL-6 secretion by LPS-challenged J774 macrophages incubated with hydrogels", "format": "cell-based, murine", "procedure": "as §4, §5\n(§7) A hydrogel was made by dissolving 1 g Carbopol (polyacrylate), 5 g PEG400, 2.1 g Arginine and 3 g PCL (cetearyl octanoate) in a total volume of 100 ml growth medium [DMEM(high glucose), 10% FCS, 4 mM L-Glutamine, antibiotics]. This mixture was further diluted with an additional 100 ml of growth medium to lower the viscosity of the solutions. Cultures of murine macrophages J774 were used. The final concentration of PEG400 in contact with the cells was 2.5%. A similar solution without PEG400 was used as control.\n(§8) A hydrogel was made by dissolving 3 g CMC ([…]), and 5 g PEG400 in a final volume of 100 ml growth medium [DMEM(high glucose), 10% FCS/4 mM L-Glutamine, antibiotics]. This mixture was further diluted with an additional 100 ml of growth medium to lower the viscosity of the solutions. Cultures of murine macrophages J774 were used. The final concentration of PEG400 was 2.5%. A similar solution without PEG400 was used as control."}, "pro-MMP9": {"system": "pro-MMP9", "test": "pro-MMP9 secretion by LPS-challenged J774 macrophages incubated with hydrogels", "format": "cell-based, murine", "procedure": "as §4, §5, §7, §8"}, "VEGF [6]": {"system": "VEGF", "test": "VEGF expression by vascular endothelial cells (SVEC)", "format": "cell-based", "from_the_text": "(§9) The expression of VEGF upon administration of PEG and/or other humectants was investigated on vascular endothelial cells (SVEC) and on fibroblast cells (3T3). The beneficial role of VEGF expression in the healing of ischemic wounds is described in Corrall et al. (1999) Arch. Surg. 134, 200-205."}, "VEGF [7]": {"system": "VEGF", "test": "VEGF expression by fibroblast cells (3T3), comparison of humectants", "format": "cell-based, murine", "details": "3T3 fibroblast cells", "from_the_text": "as §9"}, "Collagen type III": {"system": "Collagen type III", "test": "Collagen III expression by 3T3 fibroblast cells", "format": "cell-based, murine", "details": "3T3 cells", "from_the_text": "This increase of collagen III expression was significant compared to control."}, "[8]": {"details": "overnight incubation, PEG 400 0.31-10% w/w"}, "[9]": {"details": "J774, alginate gel, 2.5% PEG400, 100 ng/ml LPS"}, "[10]": {"details": "J774, carboxymethylcellulose gel, 2.5% PEG400, 100 ng/ml LPS"}, "[11]": {"details": "J774, polyacrylate (Carbopol) gel, 2.5% PEG400, LPS"}},
  "data": [
    {"substance": "PEG 600 diacid", "values": [
      {"measurement": "pro-MMP9 expression", "setting": "proMMP-9; J774 cells challenged with heat inactivated E. coli after 30 min pre-incubation", "result": "lowered"},
      {"measurement": "VEGF expression", "setting": "VEGF [1]; 3T3 fibroblasts, increasing amounts 0.078-0.625% w/w", "result": "influenced"},
      {"measurement": "lowering of IL-6 expression", "setting": "IL-6 [2]", "result": "about 30%"}
    ]},
    {"substance": "Polyethylene glycol [PEG 400]", "values": [
      {"measurement": "effect on cell survival", "setting": "HaCat keratinocytes; keratinocytes, concentrations below 5%", "result": "no detrimental effect"},
      {"measurement": "concentration from which PEG has a cytotoxic effect", "setting": "HaCat keratinocytes; keratinocytes, overnight incubation, PEG 400 0.31-10% w/w", "result": "≥ 5", "unit": "%"},
      {"measurement": "concentration from which PEG400 is cytotoxic (summary statement)", "setting": "HaCat keratinocytes; summary of Example 1, cell type not specified", "result": "≥ 5 % (w/w)"},
      {"measurement": "effect on cell survival", "setting": "3T3 fibroblasts; concentrations below 5%", "result": "no detrimental effect"},
      {"measurement": "concentration from which PEG has a cytotoxic effect", "setting": "3T3 fibroblasts; [8]", "result": "≥ 5", "unit": "%"},
      {"measurement": "effect on cell survival", "setting": "J774 macrophages; concentrations below 5%", "result": "no detrimental effect"},
      {"measurement": "concentration from which PEG has a cytotoxic effect", "setting": "J774 macrophages; [8]", "result": "≥ 5", "unit": "%"},
      {"measurement": "secretion of proMMP9", "setting": "proMMP-9; J774, PEG 400 concentration from about up to roughly 1% (w/w), 30 min pre-conditioning, heat inactivated E. coli, overnight", "result": "significantly reduced"},
      {"measurement": "PEG400 concentration of maximum VEGF expression", "setting": "VEGF [1]; fibroblasts, 0.31-10% w/w tested", "result": 5, "unit": "%"},
      {"measurement": "VEGF expression", "setting": "VEGF [1]; fibroblasts, PEG400 concentrations between 2% and 10%", "result": "increases"},
      {"measurement": "IL-6 expression", "setting": "IL-6 [3]", "result": "decreased"},
      {"measurement": "VEGF expression", "setting": "VEGF [4]", "result": "slightly increased"},
      {"measurement": "secretion of IL-6", "setting": "IL-6 [5]; [9]", "result": "reduced"},
      {"measurement": "expression of IL-6", "setting": "IL-6 [5]; [10]", "result": "clearly reduced"},
      {"measurement": "expression of IL-6", "setting": "IL-6 [5]; [11]", "result": "reduced"},
      {"measurement": "secretion of pro-MMP9", "setting": "pro-MMP9; [9]", "result": "reduced"},
      {"measurement": "expression of pro-MMP9", "setting": "pro-MMP9; [10]", "result": "less reduced"},
      {"measurement": "expression of pro-MMP9", "setting": "pro-MMP9; [11]", "result": "reduced"},
      {"measurement": "VEGF expression compared with 4% propylene glycol and 4% glycerol", "setting": "VEGF [6]", "result": "highest expression"},
      {"measurement": "VEGF expression compared with 4% propylene glycol and 4% glycerol", "setting": "VEGF [7]", "result": "highest expression"},
      {"measurement": "collagen III expression compared with 4% propylene glycol and 4% glycerol", "setting": "Collagen type III", "result": "highest expression"},
      {"measurement": "increase of collagen III expression compared to control", "setting": "Collagen type III; 4%", "result": "significant"}
    ]}
  ]
}
